{"source": "patent US8809529B2", "about": "“Imidazo[1,2-α]pyrazine derivatives” (Promega Corporation, priority 2010, dated 2014)", "key": {"[1]": {"biological_target": "T1, OgLuc (Oplophorus gracilirostris, UniProt Q9GV45, A31E/A60K/A81I/F95Y/I117V/L99Q/M102K/N193R/P142E/Q151K/Q38R/Q45L/V71I/Y165I)", "T1 construct": "10 μL of purified 9B8, L27V or firefly luciferase (Luc2) enzyme; made in house", "T1 sequence (Q9GV45 other isoform, or with tags, fused parts or gaps with the stated changes)": "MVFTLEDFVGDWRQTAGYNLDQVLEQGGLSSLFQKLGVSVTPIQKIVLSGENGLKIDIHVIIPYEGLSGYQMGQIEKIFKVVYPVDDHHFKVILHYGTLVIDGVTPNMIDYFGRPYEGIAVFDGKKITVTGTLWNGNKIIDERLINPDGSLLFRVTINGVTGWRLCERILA", "assay": "LOPAC library inhibition screen", "format": "biochemical", "settings": "preliminary LOPAC screen with 9B8 variant, 20 μM substrate", "description": "To determine the susceptibility of the OgLuc variants to off-target interactions, the activity of the 9B8 and L27V variants was screened against a LOPAC (library of pharmacologically active compounds) library. A LOPAC 1280 library (Sigma) was prepared by diluting the compounds to 1 mM in DMSO. On the day of the assay, the compounds were diluted to 20 μM in 1×PBS, and 10 μL transferred to a 96-well, white plate. To each well, 10 μL of purified 9B8, L27V or firefly luciferase (Luc2) enzyme diluted 10^−4 in Glo Lysis Buffer (Promega Corp.) was added and incubated at room temperature for 2 min. […] For assaying firefly luciferase, the BRIGHT-GLO™ Assay reagent (Promega Corp.) was used according to the manufacturer's protocol. As a negative control, 8 wells of each plate contained 1×PBS+2% glycerol. As a positive control, 8 wells of each plate contained 2 mM Suramin in 2% DMSO or 2 mM luciferase inhibitor 1 in 2% DMSO (Calbiochem)."}, "[2]": {"tested_on": "HEK293 cells", "assay": "Live cell luminescence in HEK293 cells", "format": "cell-based, human", "settings": "HEK293 cells expressing 9B8 opt, 60 μM", "description": "A. The use of OgLuc variants and PBI-3939 in live cells was examined. HEK293 cells were plated in 96-well plates at 15,000 cells/well and grown overnight, at 37° C. The following day, the cells were transiently transfected using TRANSIT®-LT1 in 3 replicates with 100 ng of hRL or 9B8 opt in pF4Ag and grown overnight at 37° C. The following day the growth media was removed and replaced with media containing 60 μM VIVIREN™ Live Cell Substrate (Promega Corp.), 60 μM ENDUREN™ Live Cell Substrate (Promega Corp.), or 60 μM PBI-3939 for both hRL and 9B8 opt transfected cells. Non-transfected cells were used as background control. The plate was incubated at 37° C. during the course of one day and periodically measured on a TECAN® GENIOS™ Pro luminometer, i.e., 11 times over the course of 24 hrs."}, "[3]": {"biological_target": "T2, OgLuc variant 9B8 opt (Oplophorus gracilirostris, UniProt Q9GV45, A31E/A60K/A81I/F95Y/I117V/L99Q/M102K/N193R/P142E/Q151K/Q38R/Q45L/V71I/Y165I)", "T2 construct": "made in house; host or cells: E. coli (crude lysate)", "T2 sequence (Q9GV45 other isoform, or with tags, fused parts or gaps with the stated changes)": "as above", "assay": "Multiplex assay with red click beetle luciferase and 9B8 opt (modified DUAL-GLO)", "format": "biochemical", "description": "A. Lysates of E. coli expressing the variant 9B8 opt were prepared as previously described in Example 27 and diluted 1000-fold in DMEM without phenol red+0.1% PRIONEX®. Luminescence from a sample containing 6.3 μg/mL of purified red click beetle luciferase and E. coli lysate expressing the variant 9B8 opt was detected using a modified DUAL-GLO® Luciferase Assay System (Promega Corp.). DUAL-GLO® STOP&GLO® Reagent containing 20 μM coelenterazine-h and DUAL-GLO® STOP&GLO® Reagent containing 20 μM PBI 3939 were used, according to the manufacturer's protocol, to detect the red click beetle luciferase and OgLuc variant 9B8 luciferase from a single sample. Three replicates were performed.\nLuminescence was detected on a Turner MODULUS™ luminometer. […] The standard deviation (“+/−”) and coefficient of variance (“CV”) are also shown. A “no coelenterazine” control was performed to illustrate the amount of quenching of the red click beetle signal by the DUAL-GLO® STOP&GLO® Reagent of the DUAL-GLO® Luciferase Assay System in the absence of coelenterazine. The “no coelenterazine” control yielded a 349-fold quench."}, "[4]": {"biological_target": "OgLuc variant L27V (Oplophorus gracilirostris, UniProt Q9GV45, A31E/A60N/A81I/F95D/I117V/K70R/L54V/L99Q/M102K/N193R/P142E/Q151K/Q38R/Q45L/V71I/Y165I)", "settings": "approximately 20 pM L27V, pH 6, 3 min at 22° C.", "description": "To determine the Km of PBI-3939, the OgLuc variant L27V (described in Example 26) was purified via HALOTAG® fusion using the HALOTAG® Protein Purification System according to the manufacturer's instructions and diluted in DMEM without Phenol Red and 0.1% PRIONEX®. 50 μL assay buffer (100 mM MES pH 6, 35 mM Thiourea, 0.5% TERGITOL® NP-9 (v/v), 1 mM CDTA, 2 mM DTT and 150 mM KCl) with varying amounts of PBI-3939 was added to 50 μL diluted enzyme (approximately 20 pM final enzyme concentration), and luminescence measured at 3 min at 22° C."}, "[5]": {"tested_on": "HEK293 cells", "settings": "human, 24 h"}, "[6]": {"biological_target": "T3, L27V02 enzyme (Oplophorus gracilirostris, UniProt Q9GV45, A31E/A60N/A81I/F95D/I117V/K70R/L54V/L99Q/M102K/N193R/P142E/Q151K/Q38R/Q45L/V71I/Y165I)", "T3 construct": "The N-terminus of the OgLuc variant L27V is methionine, valine and phenylalanine, i.e., MVF; made in house", "T3 sequence (Q9GV45 28-196 with tags or gaps with the stated changes limits assumed, one chain of several)": "as the sequence (Q9GV45 other isoform, or with tags, fused parts or gaps with the stated changes) above, with L29V, K35N, K45R, Y70D counted along it", "assay": "Luminescence of compounds with purified L27V02 enzyme", "format": "biochemical", "settings": "20 μM compound, 36 pM L27V02, pH 7, 3 min", "description": "Compounds PBI-4525, PBI-4540 and PBI-4541 were screened for their ability to detect luminescence. […] The assay reagent was then mixed with 36 pM purified L27V02 enzyme (described in Example 25B), in DMEM without Phenol Red and 0.1% PRIONEX®. As a control, assay buffer with 20 μM PBI-3939 or PBI-4528 was used. Luminescence was measured as previously described 3 min after the assay reagent was added to the enzyme mixture."}, "[7]": {"tested_on": "HEK293 cells", "assay": "Luminescence of luciferases in lysed HEK293 cells (codon optimization)", "format": "cell-based, human", "description": "Codon optimized versions of IV (“IV opt” (SEQ ID NO: 22) and “IV optB” (SEQ ID NO: 23)) and 9B8 (“9B8 opt” (SEQ ID NO: 24) and “9B8 optB” (SEQ ID NO: 25)) were generated and cloned into pF4Ag by methods known in the art. HEK293 cells were plated in 96-well plates at 15,000 cells/well and grown overnight at 37° C. The following day, the cells were transiently transfected in 6 well replicates using TRANSIT®-LT1 Transfection Reagent (Minis Bio) with 100 ng of plasmid DNA encoding the codon optimized versions in pF4Ag and grown overnight at 37° C. HEK293 cells were also transfected with either pGL4.13 (Luc2/SV40) (Paguio et al., “pGL4 Vectors: A New Generation of Luciferase Reporter Vectors” Promega Notes, 89:7-10 (2005)) or pGL4.73 (hRL/SV40) (Id.) to normalize for differences in transfection efficiency. Ten ng/transfection or 10% of the total DNA transfected was used.\nThe OgLuc variants had higher luminescence compared to Luc2 and hRL."}}}
{"molecule": "Cc1ccc(C(=O)Nc2ccc(S(=O)(=O)O)c3cc(S(=O)(=O)O)cc(S(=O)(=O)O)c23)cc1NC(=O)c1cccc(NC(=O)Nc2cccc(C(=O)Nc3cc(C(=O)Nc4ccc(S(=O)(=O)O)c5cc(S(=O)(=O)O)cc(S(=O)(=O)O)c45)ccc3C)c2)c1", "note": "[Suramin]", "values": [{"measurement": "inhibition of OgLuc", "setting": "[1]", "result": "inhibitor of OgLuc"}]}
{"molecule": "O=c1c(Cc2ccco2)nc2c(Cc3ccccc3)[nH]c(-c3ccccc3)cn1-2", "note": "[PBI-3939, 8-benzyl-2-(furan-2-ylmethyl)-6-phenylimidazo[1,2-a]pyrazin-3(7H)-one]", "values": [{"measurement": "cell permeation", "setting": "[2]", "result": "can permeate cells in culture"}, {"measurement": "Ogluc (average luminescence generated by 9B8 opt)", "setting": "[3]; 20 μM substrate in DUAL-GLO STOP&GLO Reagent", "result": "2,996,940"}, {"measurement": "+/− coel", "setting": "[3]; Ogluc signal relative to no coelenterazine control", "result": 207}, {"measurement": "Km", "setting": "[4]", "result": "~10", "unit": "µM"}, {"measurement": "Viability (normalized to vehicle (DMSO) control) (%)", "setting": "[5]", "result": 89, "unit": "%"}, {"measurement": "RLU", "setting": "[6]", "result": "9,808,880 RLU"}, {"measurement": "Stability (pH 8) (T90 in hrs)", "result": 4.1, "unit": "hrs"}]}
{"molecule": "Luc2: a firefly luciferase (protein, listed as Photinus pyralis) MEDAKNIKKGPAPFYPLEDGTAGEQLHKAMKRYALVPGTIAFTDAHIEVDITYAEYFEMSVRLAEAMKRYGLNTNHRIVVCSENSLQFFMPVLGALFIGVAVAPANDIYNERELLNSMGISQPTVVFVSKKGLQKILNVQKKLPIIQKIIIMDSKTDYQGFQSMYTFVTSHLPPGFNEYDFVPESFDRDKTIALIMNSSGSTGLPKGVALPHRTACVRFSHARDPIFGNQIIPDTAILSVVPFHHGFGMFTTLGYLICGFRVVLMYRFEEELFLRSLQDYKIQSALLVPTLFSFFAKSTLIDKYDLSNLHEIASGGAPLSKEVGEAVAKRFHLPGIRQGYGLTETTSAILITPEGDDKPGAVGKVVPFFEAKVVDLDTGKTLGVNQRGELCVRGPMIMSGYVNNPEATNALIDKDGWLHSGDIAYWDEDEHFFIVDRLKSLIKYKGYQVAPAELESILLQHPNIFDAGVAGLPDDDAGELPAAVVVLEHGKTMTEKEIVDYVASQVTTAKKLRGGVVFVDEVPKGLTGKLDARKIREILIKAKKGGKIAV", "values": [{"measurement": "luminescence relative to hRL", "setting": "[7]", "result": "approximately 14 fold"}]}
